From patent US20240050526A1, “CATH2 DERIVATIVES FOR STIMULATING INNATE IMMUNE MEMORY” (priority 2020, published 2024)
Square brackets hold non-standard residues; d marks the D form. Ends that are not written are not given here.

Tests used:
[1] = tested on: Salmonella enterica; conditions: injected into the yolk of zebrafish embryos, intravenous infection; cited from earlier work
[2] = tested on: dTHP-1 cells; test: RNA sequencing of DCATH-2 trained dTHP-1 cells; format: cell-based, human
Method: dTHP-1 cells (1×10^6/well) were primed for 24 h with DCATH-2 in 6 well plates containing 1 ml medium, using culture medium as control. After priming, cells were washed 3 times and left to rest for 3 days in culture medium. Cells were stimulated for 6 h with 50 ng/ml E. coli O111:B4 LPS or fresh medium. Supernatants were stored for cytokine analysis. Cells were harvested by rinsing once with ice-cold DPBS and lysing cells in 100 μl RLT buffer (Qiagen) containing 1% 2-mercaptoethanol. After scraping, per condition the contents of two wells were transferred into vials, flash frozen in liquid nitrogen and stored at −80° C. for analysis. Total RNA was extracted in RLT buffer (RNeasy kit, Qiagen) supplemented with 2-mercaptoethanol and purified using a Qiagen QiaSymphony SP system. RNA libraries were prepared using the Truseq stranded total RNA (ribo-zero) library prep kit (Illumina) according the manufacturer's recommendations. RNA-sequencing was done with a NextSeq 500 system 1×75 bp high-output kit. Single-end RNASeq reads were processed using the UMCU RNASeq pipeline (v2.3.0) with default settings. Read quality was assessed with FastQC (0.11.4) followed by splice-aware alignment against the human reference genome (GRCh37) with STAR (2.4.2a). RNA expression quantification was performed with htseq-count (0.6.0) in reverse-stranded mode. Differential gene expression analysis was carried out with the DESeq2 package in DEBrowser (https://debrowser.umassmed.edu/). In each comparsion, genes were selected with an absolute fold-change >1.5 and alpha P<0.05. Pathway enrichment analysis was performed in g:Profiler (https://biit.cs.ut.ee/gprofiler/) using separate FDR ranked differentially expressed gene lists for up and down regulated genes with a Benjamini-Hochberg FDR correction for multiple testing and a FDR<0.05 threshold. Enriched pathways of GO Biologic Processes were visualized in Cytoscape (http://www.cytoscape.org/) using EnrichmentMap (http://www.baderlab.org/Software/EnrichmentMap) and a FDR cutoff of 0.01. Similarity statistic threshold was set at Jaccard>0.25 and filtered for gene set sizes between 5 and 500 genes.

[3] = DCATH-2 training, during LPS stimulation
[4] = RNAseq experiment, 24 h priming, 3 days rest, 6 h E. coli LPS stimulation
[5] = trained LPS-stimulated cells vs LPS-stimulated control cells
[6] = trained and rested cells vs unstimulated control cells

## rfgrflrkirrfrpkvtitiqgsarf-NH2 ([dR][dF]G[dR][dF][dL][dR][dK][dI][dR][dR][dF][dR][dP][dK][dV][dT][dI][dT][dI][dQ]G[dS][dA][dR][dF]-NH2; N-terminus assumed; SMILES CC[C@@H](C)[C@@H](NC(=O)[C@@H](CCCCN)NC(=O)[C@@H](CCCNC(=N)N)NC(=O)[C@@H](CC(C)C)NC(=O)[C@@H](Cc1ccccc1)NC(=O)[C@@H](CCCNC(=N)N)NC(=O)CNC(=O)[C@@H](Cc1ccccc1)NC(=O)[C@H](N)CCCNC(=N)N)C(=O)N[C@H](CCCNC(=N)N)C(=O)N[C@H](CCCNC(=N)N)C(=O)N[C@H](Cc1ccccc1)C(=O)N[C@H](CCCNC(=N)N)C(=O)N1CCC[C@@H]1C(=O)N[C@H](CCCCN)C(=O)N[C@@H](C(=O)N[C@@H](C(=O)N[C@@H](C(=O)N[C@@H](C(=O)N[C@@H](C(=O)N[C@H](CCC(N)=O)C(=O)NCC(=O)N[C@H](CO)C(=O)N[C@H](C)C(=O)N[C@H](CCCNC(=N)N)C(=O)N[C@H](Cc1ccccc1)C(N)=O)[C@H](C)CC)[C@H](C)O)[C@H](C)CC)[C@H](C)O)C(C)C) [DCATH-2, full D-amino acid analog of CATH-2]
[1]
  mortality after lethal dose of Salmonella enterica: delayed mortality
[2]; [3]
  Log 2 fold change, gene AHNAK2: 1.12
  Log 2 fold change, gene CCL18: 2.81
  Log 2 fold change, gene CCRL2: 1.04
  Log 2 fold change, gene CD22: 1.18
  Log 2 fold change, gene CSF2: 1.81
  Log 2 fold change, gene CXCL3: 1.18
  Log 2 fold change, gene FAM213B: 1.02
  Log 2 fold change, gene FOXF1: 1.21
  Log 2 fold change, gene HSPBAP1: 1.06
  Log 2 fold change, gene IL1A: 1.15
  Log 2 fold change, gene IL6: 2.17
  Log 2 fold change, gene KLF2: 2.54
  Log 2 fold change, gene LIF: 2.73
  Log 2 fold change, gene MFSD2A: 1.04
  Log 2 fold change, gene MYLK: 1.17
  Log 2 fold change, gene PTGS2: 1.29
  Log 2 fold change, gene SEPT3: 1.06
  Log 2 fold change, gene TIE1: 1.46
  Log 2 fold change, gene TNFSF15: 1.19
  Log 2 fold change, gene TRIM47: 2.45
  Log 2 fold change, gene TRPM8: 1.36
  Log 2 fold change, gene ZNF358: 1.04
[2]; [4]
  amplification of IL-6 production: 3.3 fold
  amplification of TNFα production: 2.5 fold
[2]; [5]
  downregulated DEGs: 54
  upregulated DEGs: 71
[2]; [6]
  downregulated DEGs: 126
  upregulated DEGs: 156
